Measured values published in patent US20190374478A1, “Ultrastable Gold Nanoparticles For Drug Delivery Applications And Synthesis Thereof” (Université Laval, priority 2016, published 2019).

How the values were obtained:
[1] = Encapsulation efficiency (indirect assay, magnetic bead removal, UV-visible/HPLC of supernatant); format: physicochemical; conditions: 69 nM AuNPs
Description: The AuNPs and the drug are brought into contact in a screw-cap 2 mL microtube, with magnetic bar stirring, at 37° C. for a time determined according to the kinetics of encapsulation obtained by UV-visible spectroscopy.
In the case of travoprost, an encapsulation time of five days was chosen according to the encapsulation kinetics determined by UV spectroscopy at 278 nm (FIG. 9).
The method used to determine the encapsulation efficiency rely on an indirect assay by evaluating what has not been encapsulated. Once the encapsulation is complete, the entire mixture is brought into contact with magnetic beads to allow the nanoparticles that contain the encapsulated drug to be removed from the medium. The residual supernatant is then analyzed by UV-visible spectroscopy and high-performance liquid chromatography (HPLC).
To do so, a solution of 0.0005% phosphate buffered saline Tween™ (PBS-T) was prepared. The magnetic beads were then cleaned and 100 μL of magnetic beads were placed in a 1.5 mL microtube. The beads were then magnetized, and the supernatant was removed.
1 mL of the prepared PBS-T was added to the beads, the beads were then suspended with a vigorous vortex for 30 seconds. The beads were then magnetized, and the supernatant was removed. […]
The final supernatant was analyzed by UV-Visible spectroscopy (λ=200-700 nm) and by high-performance liquid chromatography (HPLC).

[2] = system: intraocular pressure in glaucomatous mice; assay: Intraocular pressure in microbead-induced hypertensive glaucoma model; format: in vivo, C57BL/6J mice
Description: An in vivo glaucoma model involving the injection of exogenous microbeads into the anterior chamber was used (FIG. 17A). The injected beads partially block the trabecular meshwork resulting in intraocular pressure (IOP) elevation while causing no damage to the site of drug action. Two-month-old C57BL/6J mice were used. The IOP was followed with a tonometer (Tonolab®) specially designed for rodents. Animals were injected with 5 μL of microbeads with a dimeter of about 10 μm (7.2×10^6 microbeads/mL) in the anterior chamber of the left eye. For the encapsulation experiments, travoprost was solubilized in water/ethanol (50/50) in the presence of AuNPs. The solution was heated (65° C.) in order to evaporate the ethanol and to induce conformational changes of PEG molecules leading to a better encapsulation. The solution was thus completed with water until the initial volume. Hypertensive glaucoma was induced in adult C57BL/6 mice by injecting 5 μL of polystyrene microbeads (35,000 microbeads) with an average diameter of 10 μm in the anterior chamber of the eye. The dispersion of the microbeads at the level of the iridocorneal angle blocks the passage of the aqueous humor towards the trabecular meshwork (FIG. 17A). Mechanically, the decrease in drainage of the aqueous humor produces an increase in intraocular pressure which is measured with a tonometer of the Tonolab brand. […]

CC(C)OC(=O)CCC/C=C\C[C@@H]1[C@@H](/C=C/[C@@H](O)COc2cccc(C(F)(F)F)c2)[C@H](O)C[C@@H]1O [travoprost]
Percentage of encapsulated travoprost ([1]; initial 80 μM travoprost): about 68.52%±4.032 | Percentage of encapsulated travoprost ([1]; initial 120 μM travoprost): about 67.98%±3.877 | Level of intraocular pressure after 24 hours ([2]; 24 hours after single topical application): returned to a high level, similar to that before treatment | Effect on intraocular pressure ([2]; single topical application, glaucomatous mice): significantly but transiently decreased
